Measured values published in PubChem BioAssay AID488890 (Southern Research Specialized Biocontainment Screening …, 2010).
Results filed as inconclusive are left out. Active and inactive are the calls of the source. The rule behind the calls is not given here.

Test system: Mycobacterium tuberculosis non-replicating, growth inhibition
Assay: growth inhibition of non-replicating M. tuberculosis (AID 488890)

SMILES | IC50
O=C(NCCCN1CCOCC1)c1c(O)c2cc(Br)cc(Br)c2[nH]c1=O | 0.8 µM
CC(NC(=O)OCc1ccccc1)c1ccccc1 (stereo not drawn) | 0.82 µM
CC(=O)c1cccc(NC(=O)C2COc3ccccc3O2)c1 (stereo not drawn) | 24 µM (inactive)
O=C(N/N=C\c1ccc([N+](=O)[O-])s1)c1cncc(Br)c1 | 2.02 µM
CN1C2CCC1/C(=C/c1ccccn1)C(=O)/C2=C\c1ccccn1 | 16.3 µM (inactive)
CCOc1cccc(CNCCc2c(C)[nH]c3ccc(OC(F)(F)F)cc23)c1O | 9.79 µM
CCOc1ccc(OCc2ccc(C(=O)OCc3ccccn3)o2)cc1 | 8.49 µM
Cc1ccc(OCCCCc2c(C)n[nH]c2C)cc1 | 8.01 µM
CC(C)(C)NCc1cc(Br)ccc1OC1CCCC1 | 8.01 µM
CCOC(=O)COc1ccc(C2CC(C)=NN2c2ccccc2)cc1 (stereo not drawn) | 2.55 µM
CCOc1ccc(Cn2c(=O)oc3ccccc32)cc1 | 0.83 µM
COc1ccc(-n2c3c(cc(C(=O)NNc4ccccc4)c2=O)C(=O)CC(C)(C)C3)cc1 | 17.8 µM (inactive)
Cc1ccnc(NC(=O)c2cc3ccccc3o2)c1 | 4.74 µM
COc1cccc(/C=C2\SC(=S)N(CCC(=O)N3CCCCC3)C2=O)c1 | 9.08 µM
COc1cccc(NC(=O)c2ccc(-c3ccc([N+](=O)[O-])cc3)o2)c1 | 1.2 µM
CCOC(=O)/C=C1\Nc2ccccc2OC1=O | 3 µM
O=C(COC(=O)CCc1c[nH]c2ccccc12)Nc1ccc([N+](=O)[O-])cc1 | 9.82 µM
CCCCN(C)C(=O)c1cc2cc3ccc(OC)cc3nc2s1 | 6.04 µM
COc1ccc(N=N/C(=C\O)C(=O)c2ccco2)cc1 | 21.5 µM (inactive)
CCc1cc2c3c(c1)C(C)CC(C)(C)N3C(=O)/C2=C1\SC(=O)NC1=O (stereo not drawn) | 21.5 µM (inactive)
O=c1oc(-c2cccs2)nc2c1cnn2-c1ccccc1 | 0.43 µM
O=C(CNC(=O)c1cccc(F)c1)N/N=C/c1ccc([N+](=O)[O-])s1 | 10.6 µM (inactive)
COc1ccccc1NC(=O)c1cnc(SC)nc1 | 22.3 µM (inactive)

SMILES | IC50
Cc1nc(C(=O)NNC(=O)c2ccc(Cl)cc2)c(C(F)(F)F)o1 | 13.9 µM (inactive)
CCCCCC1CC(CC(=O)NC(=S)Nc2ccc([N+](=O)[O-])cc2)C(=O)O1 (stereo not drawn) | 6.68 µM
O=C(NCc1cccs1)c1cc(-c2ccc(O)cc2)on1 | 23.3 µM (inactive)
Cc1cc(C)n2nc(S(=O)(=O)Nc3c(Cl)cccc3Cl)nc2n1 | 3.15 µM
CN(O)/C=c1/ccc2c(n1)C(=O)C=CC=2 | 1.92 µM
COC(=O)CCn1c(C)cc(C(=O)COc2ccccc2C(N)=O)c1C | 9.88 µM
O=C(N/N=C\c1ccc([N+](=O)[O-])o1)C1COc2ccccc2O1 (stereo not drawn) | 2.27 µM
O=C(COc1ccc(Cl)cc1)OCC(=O)N1CCCc2ccccc21 | 12.9 µM (inactive)
COc1ccc(C(=O)COC(=O)COc2ccc(C)c(C)c2)cc1 | 20.7 µM (inactive)
CC1CCN(CCc2nc3cc(NC(=O)COc4ccc(Cl)cc4)ccc3n2C)CC1 | 17.4 µM (inactive)
O=[N+]([O-])c1ccc(N2CCN(Cc3ccc([N+](=O)[O-])o3)CC2)cc1 | < 0.1 µM
O=C1NC(=O)N(Cc2ccco2)C(=O)/C1=C\c1cccn1CCOc1ccc(Cl)cc1 | 7.42 µM
CN(C)CCCn1c(=O)n(CCc2ccccc2)c(=O)c2c3c(sc21)CCCCC3 | 16.9 µM (inactive)
COc1cccc2sc(Nc3nnc(-c4ccc(F)cc4)o3)nc12 | 2.67 µM
Nc1nonc1C(=O)N/N=C/c1ccc([N+](=O)[O-])o1 | 5.6 µM
Cn1nnc(NC(=O)COc2ccc(C3CCCCC3)cc2)n1 | 1.68 µM
O=C1/C(=C\c2ccco2)SC(=S)N1c1ccc(O)cc1 | 33.3 µM (inactive)
CC1CCN(CCOCCSc2ccc(Cl)cc2)CC1 | 19.7 µM (inactive)
Cc1ccc(C(=O)N/N=C/c2ccc([N+](=O)[O-])s2)cc1 | 2.14 µM
COc1ccc(/C=N/Nc2cc(C)nc3ccccc23)cc1 | 8.43 µM
NC1=NC[C@H](Cc2ccccc2)N1CCCCC1CCCCC1 | 7.48 µM
Cc1ccc(SCCC(=O)OCC(=O)NCC2CCCCC2)cc1 | 16.6 µM (inactive)
CCOC(=O)CNC(=O)CNC(=O)c1nn(-c2ccc(OC)c(Cl)c2)c(=O)c2ccccc12 | 29.1 µM (inactive)

SMILES | IC50
O=C(CCNc1cccc(Cl)c1)c1ccco1 | 5.4 µM
CCOC(=O)C(C)Oc1ccc(OCc2ccccc2)cc1 (stereo not drawn) | 2.24 µM
O=C(NCc1ccc(Cl)cc1)c1n[nH]c([N+](=O)[O-])c1Cl | 13.9 µM (inactive)
COc1cc2ccccc2cc1C(=O)Nc1sc2c(c1C(N)=O)CCN(C(C)C)C2 | 19 µM (inactive)
Oc1oc(-c2ccco2)nc1C=Nc1cccc(Cl)c1 | 7.88 µM
O=C1CC(N2CCN(Cc3ccccc3)CC2)C(=O)N1CCc1ccccc1 (stereo not drawn) | 22.3 µM (inactive)
CSc1ccc(C(=O)C2CCCN(Cc3cc4ccccc4[nH]3)C2)cc1 (stereo not drawn) | 11.1 µM (inactive)
CCC1CCc2sc(C(=O)NNC(=O)c3ccncc3)cc2C1 (stereo not drawn) | 1.97 µM
O=C(Cc1ccccc1)N/N=C/c1ccc([N+](=O)[O-])s1 | 14 µM (inactive)
C(=C\c1ccccc1)/CSc1nc2ncccc2[nH]1 | 4.36 µM
COc1cccc(C(=O)Nc2nnc(-c3ccc(F)cc3)o2)c1 | 8.17 µM
Cc1ccn2c(NC3CCCC3)c(-c3ccccn3)nc2c1 | 12 µM (inactive)
CC12CN3CC(C)(CN(C1)C3c1ccc([N+](=O)[O-])o1)C2 (stereo not drawn) | 4.23 µM
CN(C)CCC(=O)N1c2ccccc2Sc2ccc(Cl)cc21 | 21 µM (inactive)
COc1ccc(C(=O)CC(=O)C(=O)NCCc2cccc(C)c2)cc1 | 4.42 µM
COc1ccccc1C1=Nn2c(nnc2C2CCCCC2)SC1 | 13.9 µM (inactive)
N=C1/C(=C\c2coc3ccccc3c2=O)C(=O)N=C2SC=CN12 | 21.4 µM (inactive)
O=c1cc(-c2ccccc2Cl)oc2ccc([N+](=O)[O-])c(O)c12 | 1.59 µM
Brc1ccc(CSc2nnc(-c3ccco3)o2)cc1 | 0.28 µM
O=C(Nc1cccc([N+](=O)[O-])c1)C1COc2ccccc2O1 (stereo not drawn) | 21 µM (inactive)
CC(C)OC(=O)C(C)Oc1ccc(C(=O)NCCc2ccccc2)cc1 (stereo not drawn) | 11.6 µM (inactive)
COC(=O)C1=C(N)OC2=C(C(=O)CC(C)(C)C2)C1c1cccnc1 (stereo not drawn) | 14.5 µM (inactive)
CCCCOC(=O)c1ccc(NC(=O)C2CCCO2)cc1 (stereo not drawn) | 10 µM (inactive)

SMILES | IC50
CC(C)C[C@H]1CN=C(Nc2ccccc2)N1CCCC1CCCCC1 | 8.79 µM
COCCn1c(C)cc(C(=O)COC(=O)c2ccc(Br)o2)c1C | 43.8 µM (inactive)
CC1=NN(c2ccccc2)C(=O)C1C(=O)c1ccccc1 (stereo not drawn) | 15.9 µM (inactive)
Cc1cccc(N2CCN(Cc3ccc([N+](=O)[O-])o3)CC2)c1C | 2 µM
Cc1cc(N/N=C/c2ccccc2[N+](=O)[O-])nc(-n2nc(C)cc2C)n1 | 1.96 µM
O=C(COC(=O)CC12CC3CC(CC(C3)C1)C2)Nc1cccnc1Cl | 15.2 µM (inactive)
CCCCCn1c(=O)c2ccccc2n2c(CCl)nnc12 | 0.72 µM
CN(C)/C=C1/C(=O)N(c2ccc([N+](=O)[O-])cc2)N=C1c1ccccc1 | 17.7 µM (inactive)
O=[N+]([O-])c1ccc(/C=N/NS(=O)(=O)c2ccc(Cl)cc2)o1 | 14.7 µM (inactive)
Cc1cc(NC(=O)COc2ccccc2)ccc1Cl | 5.43 µM
CCCCCCn1c(=O)c(C(=O)Nc2cnccn2)c(O)c2ccccc21 | 2.4 µM
O=C(CCNc1ccc(F)cc1)c1ccco1 | 6.12 µM
CCN(CC)c1ccc2c(c1)oc(=O)c1c(Cl)cc(=O)oc12 | 3.7 µM
O=C(CCCOc1ccccc1)OCn1nnc2ccccc2c1=O | 24.8 µM (inactive)
Cc1ccc(OCC(=O)OCc2c(C)noc2C)cc1C | 11.7 µM (inactive)
O=C(CCN1CCC(c2cccs2)=N1)c1cccs1 | 4.15 µM
CCCCN1C(=O)C2(NNc3ccccc3O2)c2ccccc21 (stereo not drawn) | 4.67 µM
COc1cc(C(=O)CCN2CCC(c3ccccc3)C2)cc(OC)c1OC (stereo not drawn) | 6.41 µM
COc1ccc(/C=C/c2nc3ccccc3c(=O)o2)cc1 | 2.74 µM
COc1ccc(C(C)=O)cc1COC(=O)c1ccc2ccccc2n1 | 4.38 µM
COc1ccc(NC(=O)c2cc3ccccc3o2)cc1 | 5.57 µM
COc1cccc(NC(=O)COC(=O)Cc2ccc(Br)cc2)c1 | 12.7 µM (inactive)
O=c1[nH]c(-c2ccccn2)nc2ccccc12 | 9.66 µM

SMILES | IC50
COc1cc(C2C3=C(CC(C)(C)CC3=O)OC(N)=C2[N+](=O)[O-])ccc1O (stereo not drawn) | 50 µM (inactive)
Cc1nn(C)cc1/C=N/NC(=O)c1sc2ccccc2c1Cl | 27.8 µM (inactive)
Cc1cc(C)n(CC(=O)N/N=C/c2ccc([N+](=O)[O-])s2)n1 | 24.4 µM (inactive)
O=C1C=CC(O)(c2cc(=O)c3c(O)cc(O)cc3o2)C=C1 | 2.61 µM
O=C(COc1ccc(Br)cc1)N/N=C1/SCC(=O)N1Cc1ccccc1 | 13 µM (inactive)
O=C(Nc1nc2ccccc2n1CCN1CCCC1)C1CCCCC1 | 17.8 µM (inactive)
CCCCNC(=O)COC(=O)c1cc(F)c(F)cc1Cl | 5.61 µM
Fc1ccc(COc2ccc(-c3nnco3)cc2)cc1 | 10.8 µM (inactive)
Cc1cccc(NC(=O)c2cc3ccccc3o2)c1 | 3.23 µM
COc1ccc(C(=O)COC(=O)c2ccccc2O)c(OC)c1 | 1.46 µM
Cc1ccc2nc(N(CCCN(C)C)C(=O)c3ccc4c(c3)CCCC4)sc2c1 | 14.5 µM (inactive)
O=C(Nc1nnc(-c2ccccc2Cl)o1)c1ccc(S(=O)(=O)N2CCCCCC2)cc1 | 8.7 µM
Cc1nn(-c2nc3ccccc3[nH]2)c(N)c1-c1ccc(Cl)cc1 | 4.88 µM
CN(C)CCCNc1nc2sc3c(c2c(=O)n1CCc1ccccc1)CCCCC3 | 12 µM (inactive)
Cc1cc2n(n1)SC(Nc1ccccc1)N2 (stereo not drawn) | 26.7 µM (inactive)
CCOc1ccc(OCC(=O)Nc2nccs2)cc1 | 7.75 µM
COc1ccc(OCC(=O)NNC(=O)c2ccccn2)cc1 | 11.3 µM (inactive)
O=C(CCN1CCOCC1)c1ccc(Cl)cc1 | 7.01 µM
Cc1cc(C)cc(OC(=O)CCN2C(=O)c3ccccc3C2=O)c1 | 19.4 µM (inactive)
CCCCCCCCCCn1cc(C(C)=O)c(=O)[nH]c1=O | 4.74 µM
O=C(CN1CCN(c2ccc([N+](=O)[O-])cc2)CC1)Nc1ccccn1 | 30.8 µM (inactive)
